Measurements: ChEMBL document CHEMBL5465560, “Selectivity Literature for EUbOPEN Chemogenomic Library” (2024)

Assays:
[1] = target: Insulin receptor-related protein (Homo sapiens) (UniProt P14616); experiment: Selectivity interaction (KinomeScan (DiscoverX)) EUB0000695a INSRR; settings: at 100 nM
[2] = target: Serine/threonine-protein kinase/endoribonuclease IRE1 (Homo sapiens) (UniProt O75460); experiment: Selectivity interaction (KinomeScan (DiscoverX)) EUB0001079a ERN1; settings: at 1 µM
[3] = target: T1, Serine/threonine-protein kinase ULK3 (Homo sapiens) (UniProt Q6PHR2); experiment: Selectivity interaction (KinomeScan (DiscoverX)) EUB0000666a ULK3; settings: at 10 µM
T1 sequence (whole entry): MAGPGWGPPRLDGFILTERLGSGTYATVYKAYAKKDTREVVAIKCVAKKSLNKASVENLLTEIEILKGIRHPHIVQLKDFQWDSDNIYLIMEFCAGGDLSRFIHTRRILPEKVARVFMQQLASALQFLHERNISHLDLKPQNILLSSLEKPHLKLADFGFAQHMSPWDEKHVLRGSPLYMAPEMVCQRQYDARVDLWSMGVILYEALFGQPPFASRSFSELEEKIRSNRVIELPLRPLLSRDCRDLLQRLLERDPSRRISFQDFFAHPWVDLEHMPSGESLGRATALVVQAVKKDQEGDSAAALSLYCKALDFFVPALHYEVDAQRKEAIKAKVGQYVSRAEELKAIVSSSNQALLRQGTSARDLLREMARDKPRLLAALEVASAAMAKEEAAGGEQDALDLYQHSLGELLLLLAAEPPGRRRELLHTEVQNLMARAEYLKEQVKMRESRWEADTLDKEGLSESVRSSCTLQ

[4] = target: Ribosomal protein S6 kinase alpha-1 (Homo sapiens, UniProt Q15418); settings: at 10 µM
[5] = target: T2, Myosin light chain kinase (Homo sapiens) (UniProt Q32MK0); experiment: Selectivity interaction (KinomeScan (DiscoverX)) EUB0001049a MYLK3; settings: at 1 µM
T2 sequence (whole entry): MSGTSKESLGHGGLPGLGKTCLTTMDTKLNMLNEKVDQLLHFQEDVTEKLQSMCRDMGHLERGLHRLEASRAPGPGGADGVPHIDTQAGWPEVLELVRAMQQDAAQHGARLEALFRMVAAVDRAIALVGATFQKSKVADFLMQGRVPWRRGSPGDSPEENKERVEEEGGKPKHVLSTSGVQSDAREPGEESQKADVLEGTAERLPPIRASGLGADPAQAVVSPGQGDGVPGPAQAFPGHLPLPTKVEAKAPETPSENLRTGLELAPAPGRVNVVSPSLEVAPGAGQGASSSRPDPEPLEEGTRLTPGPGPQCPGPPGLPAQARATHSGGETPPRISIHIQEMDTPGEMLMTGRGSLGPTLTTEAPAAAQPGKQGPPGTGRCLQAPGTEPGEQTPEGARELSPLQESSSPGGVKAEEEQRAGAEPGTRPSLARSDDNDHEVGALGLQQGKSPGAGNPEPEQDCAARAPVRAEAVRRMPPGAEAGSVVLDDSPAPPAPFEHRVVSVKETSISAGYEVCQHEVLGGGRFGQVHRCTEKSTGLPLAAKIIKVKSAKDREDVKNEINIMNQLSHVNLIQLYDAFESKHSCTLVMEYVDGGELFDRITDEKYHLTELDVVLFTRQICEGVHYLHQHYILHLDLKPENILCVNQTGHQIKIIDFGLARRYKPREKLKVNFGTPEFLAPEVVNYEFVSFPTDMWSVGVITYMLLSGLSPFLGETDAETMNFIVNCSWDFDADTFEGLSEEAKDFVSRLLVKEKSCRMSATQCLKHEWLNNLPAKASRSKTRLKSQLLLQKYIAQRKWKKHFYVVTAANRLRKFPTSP

[6] = target: MAP kinase-interacting serine/threonine-protein kinase 1 (Homo sapiens) (UniProt Q9BUB5); experiment: Selectivity interaction (ProQinase) EUB0000171b MKNK1
[7] = target: Insulin-like growth factor 1 receptor (Homo sapiens, UniProt P08069); experiment: Selectivity interaction (SelectScreen profiling (Invitrogen)) EUB0000607a IGF1R; settings: at 2 µM
[8] = target: T3, cGMP-dependent protein kinase 2 (Homo sapiens) (UniProt Q13237); experiment: Selectivity interaction (KinomeScan (DiscoverX)) EUB0000607a PRKG2; settings: at 10 µM
T3 sequence (whole entry): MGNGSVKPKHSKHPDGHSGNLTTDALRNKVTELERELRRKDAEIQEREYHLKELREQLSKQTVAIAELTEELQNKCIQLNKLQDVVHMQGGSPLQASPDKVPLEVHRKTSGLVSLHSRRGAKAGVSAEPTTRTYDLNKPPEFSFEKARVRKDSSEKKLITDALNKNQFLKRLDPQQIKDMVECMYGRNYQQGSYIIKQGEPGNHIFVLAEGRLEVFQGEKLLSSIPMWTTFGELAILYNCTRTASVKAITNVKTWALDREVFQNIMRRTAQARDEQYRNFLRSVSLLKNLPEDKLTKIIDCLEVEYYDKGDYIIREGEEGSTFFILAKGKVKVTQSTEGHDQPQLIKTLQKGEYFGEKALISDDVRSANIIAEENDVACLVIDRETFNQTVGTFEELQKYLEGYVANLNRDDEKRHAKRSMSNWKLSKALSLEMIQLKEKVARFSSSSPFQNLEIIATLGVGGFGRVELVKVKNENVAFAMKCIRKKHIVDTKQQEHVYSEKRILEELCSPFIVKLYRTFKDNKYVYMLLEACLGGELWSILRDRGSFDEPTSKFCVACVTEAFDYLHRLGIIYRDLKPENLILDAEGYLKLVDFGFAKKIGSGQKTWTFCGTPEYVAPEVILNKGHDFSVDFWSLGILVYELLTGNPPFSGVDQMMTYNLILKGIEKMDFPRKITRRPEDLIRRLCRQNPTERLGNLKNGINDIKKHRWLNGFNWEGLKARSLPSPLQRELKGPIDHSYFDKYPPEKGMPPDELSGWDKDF

[9] = target: Interleukin-1 receptor-associated kinase 1 (Homo sapiens) (UniProt P51617); experiment: Selectivity interaction (KinomeScan (DiscoverX)) EUB0000092b IRAK1; settings: at 10 µM
[10] = target: Cyclin-dependent kinase 15 (Homo sapiens) (UniProt Q96Q40); experiment: Selectivity interaction (KinomeScan (DiscoverX)) EUB0000092b CDK15; settings: at 10 µM
Cyclin-dependent kinase 15 (Homo sapiens), sequence (Q96Q40 whole entry): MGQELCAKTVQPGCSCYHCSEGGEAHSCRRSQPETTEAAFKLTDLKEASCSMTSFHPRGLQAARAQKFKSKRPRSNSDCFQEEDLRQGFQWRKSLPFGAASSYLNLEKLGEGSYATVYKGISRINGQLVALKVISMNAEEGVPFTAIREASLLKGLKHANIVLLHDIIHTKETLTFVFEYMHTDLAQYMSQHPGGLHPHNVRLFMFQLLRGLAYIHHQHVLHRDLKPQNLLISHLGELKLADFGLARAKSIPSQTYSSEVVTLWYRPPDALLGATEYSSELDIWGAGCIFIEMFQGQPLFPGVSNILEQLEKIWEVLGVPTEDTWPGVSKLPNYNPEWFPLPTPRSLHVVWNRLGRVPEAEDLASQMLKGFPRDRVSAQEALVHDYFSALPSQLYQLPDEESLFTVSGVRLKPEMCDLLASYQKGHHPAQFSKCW

MAP kinase-interacting serine/threonine-protein kinase 1 (Homo sapiens), sequence (Q9BUB5 whole entry, looked up): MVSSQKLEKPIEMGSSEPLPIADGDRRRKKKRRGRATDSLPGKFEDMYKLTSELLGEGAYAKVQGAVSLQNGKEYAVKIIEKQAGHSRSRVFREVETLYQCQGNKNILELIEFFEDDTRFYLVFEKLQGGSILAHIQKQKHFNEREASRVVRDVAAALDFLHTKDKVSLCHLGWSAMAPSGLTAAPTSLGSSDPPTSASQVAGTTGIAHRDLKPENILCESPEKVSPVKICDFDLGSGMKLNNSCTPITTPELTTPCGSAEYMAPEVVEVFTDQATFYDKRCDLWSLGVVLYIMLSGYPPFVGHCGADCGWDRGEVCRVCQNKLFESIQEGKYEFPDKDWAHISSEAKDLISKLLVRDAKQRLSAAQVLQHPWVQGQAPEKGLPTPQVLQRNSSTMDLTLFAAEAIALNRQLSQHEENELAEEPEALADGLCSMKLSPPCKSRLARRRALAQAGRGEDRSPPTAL
Insulin-like growth factor 1 receptor, sequence (P08069 31-736 limits assumed): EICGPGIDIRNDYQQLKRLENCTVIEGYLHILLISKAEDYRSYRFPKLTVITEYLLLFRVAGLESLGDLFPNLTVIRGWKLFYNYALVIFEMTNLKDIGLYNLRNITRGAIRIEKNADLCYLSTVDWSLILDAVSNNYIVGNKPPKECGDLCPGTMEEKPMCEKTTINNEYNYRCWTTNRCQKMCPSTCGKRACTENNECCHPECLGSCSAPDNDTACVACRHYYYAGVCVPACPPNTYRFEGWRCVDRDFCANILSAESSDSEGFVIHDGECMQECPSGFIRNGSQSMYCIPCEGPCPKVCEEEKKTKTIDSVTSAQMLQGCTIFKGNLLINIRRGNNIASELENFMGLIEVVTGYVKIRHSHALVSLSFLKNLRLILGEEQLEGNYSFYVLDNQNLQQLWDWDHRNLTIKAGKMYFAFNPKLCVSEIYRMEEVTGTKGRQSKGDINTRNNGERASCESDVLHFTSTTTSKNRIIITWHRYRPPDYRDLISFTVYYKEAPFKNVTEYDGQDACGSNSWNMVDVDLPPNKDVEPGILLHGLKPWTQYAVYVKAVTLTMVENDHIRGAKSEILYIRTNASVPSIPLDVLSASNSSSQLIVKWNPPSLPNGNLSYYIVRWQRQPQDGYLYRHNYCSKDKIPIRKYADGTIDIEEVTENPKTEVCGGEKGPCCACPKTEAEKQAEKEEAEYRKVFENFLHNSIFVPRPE
Insulin-like growth factor 1 receptor, sequence (P08069 741-1367 limits assumed): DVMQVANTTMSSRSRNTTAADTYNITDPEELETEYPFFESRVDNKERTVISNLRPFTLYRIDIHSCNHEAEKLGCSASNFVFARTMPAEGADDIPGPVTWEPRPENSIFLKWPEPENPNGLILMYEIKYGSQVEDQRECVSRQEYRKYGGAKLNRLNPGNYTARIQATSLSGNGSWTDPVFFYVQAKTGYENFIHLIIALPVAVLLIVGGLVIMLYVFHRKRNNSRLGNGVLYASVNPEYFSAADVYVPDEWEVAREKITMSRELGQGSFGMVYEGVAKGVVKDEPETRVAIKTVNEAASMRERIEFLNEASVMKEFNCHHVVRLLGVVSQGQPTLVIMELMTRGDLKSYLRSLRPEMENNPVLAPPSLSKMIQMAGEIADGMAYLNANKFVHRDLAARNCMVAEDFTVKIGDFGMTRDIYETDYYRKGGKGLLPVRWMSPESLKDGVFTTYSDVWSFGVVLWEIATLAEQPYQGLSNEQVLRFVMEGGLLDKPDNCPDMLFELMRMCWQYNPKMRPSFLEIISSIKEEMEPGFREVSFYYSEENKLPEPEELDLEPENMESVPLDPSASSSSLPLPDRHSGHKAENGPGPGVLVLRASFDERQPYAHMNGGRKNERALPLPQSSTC
Ribosomal protein S6 kinase alpha-1, sequence (Q15418 whole entry): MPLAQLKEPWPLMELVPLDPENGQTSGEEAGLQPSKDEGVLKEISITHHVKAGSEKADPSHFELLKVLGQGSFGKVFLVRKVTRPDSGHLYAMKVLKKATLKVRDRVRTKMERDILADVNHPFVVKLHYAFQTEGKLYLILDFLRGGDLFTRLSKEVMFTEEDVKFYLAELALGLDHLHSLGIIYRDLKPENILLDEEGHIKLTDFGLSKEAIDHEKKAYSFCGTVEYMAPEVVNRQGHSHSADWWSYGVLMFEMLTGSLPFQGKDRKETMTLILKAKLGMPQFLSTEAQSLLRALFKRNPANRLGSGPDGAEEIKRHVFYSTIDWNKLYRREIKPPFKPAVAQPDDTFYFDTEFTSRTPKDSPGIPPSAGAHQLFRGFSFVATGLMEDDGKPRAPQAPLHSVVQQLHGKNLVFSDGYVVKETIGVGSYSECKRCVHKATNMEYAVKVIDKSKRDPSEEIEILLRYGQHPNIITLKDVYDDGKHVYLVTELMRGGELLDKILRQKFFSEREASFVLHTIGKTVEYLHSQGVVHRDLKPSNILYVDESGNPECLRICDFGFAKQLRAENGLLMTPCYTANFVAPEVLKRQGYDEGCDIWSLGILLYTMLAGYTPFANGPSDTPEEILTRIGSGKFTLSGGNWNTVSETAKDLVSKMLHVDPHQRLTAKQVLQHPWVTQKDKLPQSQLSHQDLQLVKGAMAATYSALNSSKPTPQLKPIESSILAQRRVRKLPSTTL
Interleukin-1 receptor-associated kinase 1 (Homo sapiens), sequence (P51617 whole entry, looked up): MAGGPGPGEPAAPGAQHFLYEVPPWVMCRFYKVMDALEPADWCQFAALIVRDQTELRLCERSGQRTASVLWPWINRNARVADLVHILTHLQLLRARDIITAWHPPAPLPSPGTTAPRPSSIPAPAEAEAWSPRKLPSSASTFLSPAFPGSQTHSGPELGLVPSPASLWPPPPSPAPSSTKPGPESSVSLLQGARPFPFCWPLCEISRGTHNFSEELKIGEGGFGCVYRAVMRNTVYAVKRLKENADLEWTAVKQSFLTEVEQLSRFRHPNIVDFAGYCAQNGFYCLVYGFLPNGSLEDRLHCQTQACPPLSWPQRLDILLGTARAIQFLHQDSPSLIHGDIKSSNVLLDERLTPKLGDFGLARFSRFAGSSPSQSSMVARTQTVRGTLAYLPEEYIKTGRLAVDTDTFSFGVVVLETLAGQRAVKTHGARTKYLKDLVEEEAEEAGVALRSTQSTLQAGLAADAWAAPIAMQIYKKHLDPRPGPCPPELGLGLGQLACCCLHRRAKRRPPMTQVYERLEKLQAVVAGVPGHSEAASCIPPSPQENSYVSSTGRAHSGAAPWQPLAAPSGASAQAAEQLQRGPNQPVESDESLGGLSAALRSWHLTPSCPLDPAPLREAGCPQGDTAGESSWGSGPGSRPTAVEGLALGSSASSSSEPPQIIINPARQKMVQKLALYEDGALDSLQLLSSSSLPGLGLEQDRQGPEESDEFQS
Insulin receptor-related protein (Homo sapiens), sequence (P14616 27-742 limits assumed): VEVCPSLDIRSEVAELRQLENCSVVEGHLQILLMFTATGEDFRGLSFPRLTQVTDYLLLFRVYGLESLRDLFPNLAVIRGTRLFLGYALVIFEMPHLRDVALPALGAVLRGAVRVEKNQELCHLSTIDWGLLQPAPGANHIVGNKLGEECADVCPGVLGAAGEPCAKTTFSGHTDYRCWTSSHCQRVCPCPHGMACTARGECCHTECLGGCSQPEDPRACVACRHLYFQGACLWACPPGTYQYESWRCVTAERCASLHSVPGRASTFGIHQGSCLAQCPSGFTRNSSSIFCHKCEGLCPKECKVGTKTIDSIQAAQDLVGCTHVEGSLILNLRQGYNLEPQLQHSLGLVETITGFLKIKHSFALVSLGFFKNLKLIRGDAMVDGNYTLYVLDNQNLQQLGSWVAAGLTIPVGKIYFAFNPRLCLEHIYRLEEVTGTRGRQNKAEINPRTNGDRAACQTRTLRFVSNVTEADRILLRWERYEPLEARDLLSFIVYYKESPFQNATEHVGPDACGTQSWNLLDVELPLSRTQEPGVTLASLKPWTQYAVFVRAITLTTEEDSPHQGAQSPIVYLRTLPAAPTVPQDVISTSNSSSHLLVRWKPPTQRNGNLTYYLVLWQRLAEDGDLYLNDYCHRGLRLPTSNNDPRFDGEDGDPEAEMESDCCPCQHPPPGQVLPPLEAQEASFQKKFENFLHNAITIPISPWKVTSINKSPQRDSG
Insulin receptor-related protein (Homo sapiens), sequence (P14616 747-1297 limits assumed): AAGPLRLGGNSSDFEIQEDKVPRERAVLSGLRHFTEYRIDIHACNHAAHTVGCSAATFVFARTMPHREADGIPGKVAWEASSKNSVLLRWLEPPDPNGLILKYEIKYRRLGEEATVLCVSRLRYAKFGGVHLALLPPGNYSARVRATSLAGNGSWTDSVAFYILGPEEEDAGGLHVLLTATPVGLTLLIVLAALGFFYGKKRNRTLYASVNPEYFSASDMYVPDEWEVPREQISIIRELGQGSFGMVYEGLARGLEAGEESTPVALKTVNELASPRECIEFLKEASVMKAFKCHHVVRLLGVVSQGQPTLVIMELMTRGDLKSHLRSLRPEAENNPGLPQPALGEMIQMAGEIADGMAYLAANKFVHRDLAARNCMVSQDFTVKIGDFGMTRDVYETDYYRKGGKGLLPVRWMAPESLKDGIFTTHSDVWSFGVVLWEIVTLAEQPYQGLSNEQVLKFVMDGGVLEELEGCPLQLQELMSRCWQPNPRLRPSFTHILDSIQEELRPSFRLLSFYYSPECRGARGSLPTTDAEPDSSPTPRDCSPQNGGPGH

In the case of `Cc1cc(F)c(C(=O)Nc2cccc(-c3nncn3C(C)C)n2)cc1-n1cnc(C2CC2)c1`, the % of control [1] is reported as 88%.
With `Nc1cnc(N2CCc3cc(S(=O)(=O)Nc4c(F)cc(Cl)cc4F)cc(N4CCCC4=O)c32)nc1` [TP-020n] the % of control [2] was 100%.
In the case of `O=C(NOC[C@H](O)CO)c1ccc(F)c(F)c1Nc1ccc(I)cc1F`, the % of control [3] is reported as 89%.
Molecule `Cc1cc([C@@H](C)Nc2ccccc2C(=O)O)c2nc(N3CCOCC3)cc(=O)n2c1` [AZD-6482] has a % of control [4] of 73%.
Molecule `COc1cc(Nc2nc(C)cc(-c3cnn4nc(OC)ccc34)n2)cc(C(F)(F)F)c1` has a % of control [5] of 82%.
In the case of `C=CC(=O)Nc1cccc(C(=O)Nc2ccc(Nc3cc(-c4[nH]c(SC)nc4C)ccn3)cc2)c1`, the % of control ([6]; at 1 µM) is reported as 90% and the % of control ([6]; at 5 µM) is reported as 55%.
`CNC(=O)Nc1ccc(-c2nc(N3CC4CCC(C3)O4)c3cnn(C4CCC5(CC4)OCCO5)c3n2)cc1` gave a % of inhibition [7] of 1% and a % of control [8] of 88%.
`CCC(=O)N1CCN(c2ccc(-n3c(=O)ccc4cnc5ccc(-c6cnc7ccccc7c6)cc5c43)cc2C(F)(F)F)CC1` was tested, and the % of control [9] was 100% and the % of control [10] was 88%.
